Measurements reported in PubChem BioAssay (NCI).
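Each compound was tested at five concentrations against cells in 96-well plates for 48 hours. TGI is the concentration that stops growth completely.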

How the values were obtained:
Assay in all cases: NCI anticancer screen, dose series, 48 h
[1] = system: SK-OV-3 ovarian
[2] = system: UACC-257 melanoma
[3] = system: SF-268 CNS
[4] = system: SN12C renal
[5] = system: LOX IMVI melanoma
[6] = system: A498 renal
[7] = system: OVCAR-8 ovarian
[8] = system: SK-MEL-28 melanoma
[9] = system: PC-3 prostate
[10] = system: M14 melanoma
[11] = system: OVCAR-5 ovarian
[12] = system: BT-549 breast
[13] = system: CAKI-1 renal
[14] = system: SF-539 CNS
[15] = system: SNB-19 CNS
[16] = system: SW-620 colon
[17] = system: SK-MEL-5 melanoma
[18] = system: OVCAR-4 ovarian
[19] = system: ACHN renal
[20] = system: RXF 393 renal
[21] = system: NCI/ADR-RES ovarian
[22] = system: HCC-2998 colon
[23] = system: MDA-MB-231 breast
[24] = system: NCI-H522 lung
[25] = system: IGROV1 ovarian
[26] = system: RPMI-8226 leukemia
[27] = system: EKVX NSCLC
[28] = system: TK-10 renal
[29] = system: NCI-H460 lung
[30] = system: NCI-H23 lung
[31] = system: HOP-62 NSCLC
[32] = system: T-47D breast
[33] = system: HCT-116 colon
[34] = system: MDA-MB-435
[35] = system: OVCAR-3 ovarian
[36] = system: 786-0 renal
[37] = system: U251 CNS
[38] = system: SNB-75 CNS
[39] = system: A549 NSCLC
[40] = system: SF-295 CNS
[41] = system: KM12 colon
[42] = system: HCT-15 colon
[43] = system: SK-MEL-2 melanoma
[44] = system: NCI-H226 lung
[45] = system: UO-31 renal
[46] = system: MALME-3M melanoma
[47] = system: MDA-N
[48] = system: MCF7 breast
[49] = system: CCRF-CEM leukemia
[50] = system: COLO 205 colon
[51] = system: UACC-62 melanoma
[52] = system: HL-60(TB) leukemia
[53] = system: DU-145 prostate
[54] = system: HOP-92 NSCLC
[55] = system: HS 578T breast
[56] = system: MOLT-4 leukemia
[57] = system: K-562 leukemia

For `N#Cc1c(-c2ccccc2)/c(=C\Nc2ccc(F)cc2)c(=O)n2c1nc1ccccc12`, the TGI [1] was > 100 µM, the TGI [2] was > 100 µM and the TGI [3] was > 100 µM. For the same molecule, the TGI [4] was 82.9 µM, the TGI [5] was > 100 µM and the TGI [6] was > 100 µM. For the same molecule, the TGI [7] was > 100 µM, the TGI [8] was > 100 µM and the TGI [9] was > 100 µM. For the same molecule, the TGI [10] was 40.4 µM, the TGI [11] was > 100 µM and the TGI [12] was > 100 µM. For the same molecule, the TGI [13] was 39.9 µM, the TGI [14] was 68.4 µM and the TGI [15] was > 100 µM. The TGI [16] was > 100 µM, the TGI [17] was > 100 µM and the TGI [18] was > 100 µM. For the same molecule, the TGI [19] was > 100 µM, the TGI [20] was 52.3 µM and the TGI [21] was 64.9 µM. The TGI [22] was > 100 µM, the TGI [23] was > 100 µM and the TGI [24] was 34.3 µM. For the same molecule, the TGI [25] was 87.3 µM, the TGI [26] was 38.5 µM and the TGI [27] was > 100 µM. For the same molecule, the TGI [28] was > 100 µM, the TGI [29] was > 100 µM and the TGI [30] was > 100 µM. For the same molecule, the TGI [31] was 10.8 µM, the TGI [32] was > 100 µM and the TGI [33] was > 100 µM. The TGI [34] was > 100 µM, the TGI [35] was 48.2 µM and the TGI [36] was 68.3 µM. For the same molecule, the TGI [37] was > 100 µM, the TGI [38] was > 100 µM and the TGI [39] was > 100 µM. The TGI [40] was > 100 µM, the TGI [41] was > 100 µM and the TGI [42] was > 100 µM. For the same molecule, the TGI [43] was > 100 µM, the TGI [44] was 64.1 µM and the TGI [45] was 45.6 µM. The TGI [46] was 52.7 µM, the TGI [47] was 57.9 µM and the TGI [48] was > 100 µM. For the same molecule, the TGI [49] was > 100 µM and the TGI [50] was > 100 µM.
In the case of `COc1cc(C2c3cc4c(cc3OC(NN)C2C)OCO4)cc(OC)c1OC` (stereo unspecified), the TGI [1] is reported as > 100 µM, the TGI [2] is reported as > 100 µM and the TGI [3] is reported as > 100 µM. The TGI [4] was > 100 µM, the TGI [5] was > 100 µM and the TGI [6] was 0.709 µM. For the same molecule, the TGI [7] was > 100 µM, the TGI [51] was > 100 µM and the TGI [8] was > 100 µM. For the same molecule, the TGI [9] was > 100 µM, the TGI [10] was > 100 µM and the TGI [11] was > 100 µM. For the same molecule, the TGI [12] was > 100 µM, the TGI [13] was > 90.6 µM and the TGI [14] was 0.6 µM. The TGI [15] was > 100 µM, the TGI [16] was > 100 µM and the TGI [17] was > 26.8 µM. The TGI [18] was > 100 µM, the TGI [52] was 0.977 µM and the TGI [19] was > 100 µM. For the same molecule, the TGI [20] was > 100 µM, the TGI [21] was > 100 µM and the TGI [53] was > 100 µM. The TGI [22] was 3.55 µM, the TGI [23] was > 91.1 µM and the TGI [24] was 8.96 µM. The TGI [25] was > 100 µM, the TGI [26] was 67.7 µM and the TGI [27] was > 100 µM. The TGI [28] was > 100 µM, the TGI [29] was > 100 µM and the TGI [54] was 84.8 µM. For the same molecule, the TGI [30] was > 100 µM, the TGI [31] was 8.55 µM and the TGI [32] was > 100 µM. The TGI [55] was > 100 µM, the TGI [33] was > 28.2 µM and the TGI [35] was 1.04 µM. The TGI [36] was > 100 µM, the TGI [37] was 16.2 µM and the TGI [38] was > 75.2 µM. The TGI [39] was > 100 µM, the TGI [40] was > 22.7 µM and the TGI [41] was > 100 µM. For the same molecule, the TGI [42] was > 37.4 µM, the TGI [43] was > 100 µM and the TGI [56] was > 100 µM. The TGI [44] was > 24.4 µM, the TGI [45] was > 100 µM and the TGI [46] was > 100 µM. The TGI [57] was > 31.1 µM, the TGI [47] was > 100 µM and the TGI [48] was > 40 µM. The TGI [49] was > 93 µM and the TGI [50] was 13.9 µM.
